Where “and” joins values, the source holds several entries; their conditions need not be identical. Identical values can stand only once. ± gives the uncertainty stated by the source.
Assays:
Details in all cases: 18 h
HEK293T-Rex ERSE-FLuc [1] = assay: maximal ERSE-FLuc activation from dose-response fit, relative to thapsigargin (% of thapsigargin); higher = stronger activation
Description: (§1)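 Dose-response of hit compounds in HEK293T-Rex cells stably expressing ERSE-FLuc or XBP1-RLuc reporters, 18 hr treatment, 1536-well; luminescence normalised to 500 nM thapsigargin (100%) and DMSO (0%), fitted to give EC50 (M) and maximal activation; '>' marks EC50 above the top tested dose (~17 µM).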

HEK293T-Rex XBP1-RLuc [2] = assay: EC50 for XBP1-RLuc reporter activation
Description: as §1

HEK293T-Rex ERSE-FLuc [3] = assay: EC50 for ERSE-FLuc reporter activation
Description: as §1

HEK293T-Rex XBP1-RLuc [4] = assay: maximal XBP1-RLuc activation from dose-response fit, relative to thapsigargin (% of thapsigargin); higher = stronger activation
Description: as §1

SMILES | maximal ERSE-FLuc activation (HEK293T-Rex ERSE-FLuc [1]) | EC50 for XBP1-RLuc reporter activation (HEK293T-Rex XBP1-RLuc [2]) [µM] | EC50 for ERSE-FLuc reporter activation (HEK293T-Rex ERSE-FLuc [3]) | maximal XBP1-RLuc activation (HEK293T-Rex XBP1-RLuc [4])
Cc1ccc(-c2csc(Nc3ccc(O)cc3)n2)cc1 | 40.9 ± 7.5 | 8.04 | > 16.9 µM | 127 ± 1.4
c1ccc2cc(-c3cnnc(N4CCOCC4)n3)ccc2c1 | 25.2 ± 10 | > 16.9 | > 16.9 µM | 4.15 ± 2.7
COc1ccc(C2C=C3Oc4ccccc4N=C3NN2)cc1 (configuration not stated) | 27 ± 2.8 | > 16.9 | > 16.9 µM | 14.1 ± 2.1
O=C(CCCN1CCC2(CC1)C(=O)N(Cc1cccc(F)c1)CN2c1ccccc1)c1ccc(F)cc1 | 187 ± 19 | 4.02 | 4.46 µM | 214 ± 7.7
Fc1ccc(-c2nnc3ccc(N4CCN(c5ccccn5)CC4)nn23)cc1 | 5.1 ± 4.1 | > 16.9 | > 16.9 µM | 7.7 ± 2.6
NN1C(=O)/C(=C/c2ccc(O)c(O)c2)SC1=S | 53.7 ± 2.2 | > 16.9 | 11.7 µM | 33.2 ± 4.3
N#C/C(=C/c1ccc(O)c(O)c1)c1nc2ccccc2s1 | 38.1 ± 2.2 | > 16.9 | > 16.9 µM | 27.5 ± 2.7
Nc1ccccc1NC(=O)c1ccc(C(=O)Nc2ccccc2N)cc1 | 65.8 ± 3.4 | > 9.59 | 7.17 µM | 16.1 ± 6.4
CC(=O)NC1C(OC2OC(CC(O)C3OC(n4ccc(=O)[nH]c4=O)C(O)C3O)C(O)C(O)C2NC(=O)/C=C\CCCCCCCCCC(C)C)OC(CO)C(O)C1O (configuration not stated) | 139 ± 19 | > 16.9 | 0.521 µM | 45 ± 4.9
CC(=O)N1CCc2c([nH]c3ccccc23)C12CCN(CCCOc1ccccc1)CC2 | 151 ± 7.6 | 2.11 | 2.94 µM | 176 ± 21
O=C(N/N=C/c1cccc(O)c1O)c1ccccc1I | 39.5 ± 4.5 | > 16.9 | > 16.9 µM | 17.8 ± 3.8
Cc1ccccc1NC(=O)c1sc2nc(N)c(C#N)c(-c3ccc(C(C)C)cc3)c2c1N | 169 ± 22 | 4.47 | 4.01 µM | 122 ± 17
COc1ccc(CCNC(=O)c2cccc(-c3ccc(N4CCOCC4)nc3)c2)cc1 | 15.9 ± 4.6 | > 17 | > 17 µM | 2.04 ± 0.93
C=CCNC(=O)c1cc(-c2ccc(F)cc2)on1 | 50.2 ± 7.4 | > 16.9 | 16.7 µM | 6.35 ± 5.3
CS(=O)(=O)c1ncc(Cl)c(C(=O)C(C#N)c2nc3ccccc3s2)n1 (configuration not stated) | 73.2 ± 8.2 | 3.99 | 2.49 µM | 266 ± 8.4
COc1ccc2c(Cl)c(C(=O)Nc3ccccc3C(N)=O)sc2c1 | 21.3 ± 1.3 | > 16.9 | > 16.9 µM | 6.81 ± 1.3
Oc1ccc(-c2cn3ccccc3n2)cc1O | 51.7 ± 5.5 | > 22.5 | 18.4 µM | 38.7 ± 3.2
CCCNC(=O)c1cc(-c2cccs2)on1 | 92.7 ± 11 | > 16.9 | 7.59 µM | 9.95 ± 1.4
CC(=Nc1ccc(O)cc1)c1sc2ccccc2c1O | 19.8 ± 4.8 | > 19.6 | > 19.6 µM | 31.2 ± 4.8
O=C(Nc1ccc2c(c1)OCCO2)C(=O)Nc1ccccc1Cl | 16.5 ± 0.52 | > 16.9 | > 16.9 µM | 2.68 ± 2.8
COc1ccc(C2=Nn3c(nnc3-c3ccc(OC)cc3)SC2)cc1 | 17 ± 5.2 | > 16.9 | > 16.9 µM | 16 ± 2.4
O=C(c1ccccc1)c1c(O)ccc2c(C(=O)c3ccccc3)c(O)ccc12 | 32.5 ± 3.7 | > 12.5 | > 12.5 µM | 34.9 ± 1.1

SMILES | maximal ERSE-FLuc activation (HEK293T-Rex ERSE-FLuc [1]) | EC50 for XBP1-RLuc reporter activation (HEK293T-Rex XBP1-RLuc [2]) [µM] | EC50 for ERSE-FLuc reporter activation (HEK293T-Rex ERSE-FLuc [3]) | maximal XBP1-RLuc activation (HEK293T-Rex XBP1-RLuc [4])
Oc1cccc(/C=N/Nc2ccc(Cl)nn2)c1O | 41.7 ± 1.8 | > 17.9 | > 17.9 µM | 19.4 ± 1
OCCNc1nc(Nc2ccc(Cl)c(Cl)c2)nc2ccccc12 | 144 ± 47 | 4.98 | 4.13 µM | 73.7 ± 9
COc1ccc(/C=C/c2nc3cc([N+](=O)[O-])ccc3s2)cc1O | 39.5 ± 2.4 | > 18.5 | > 18.5 µM | 8.74 ± 5.7
O=c1cc(-c2ccc(O)c(O)c2)oc2cc(O)cc(O)c12 | 80.9 and 67.8 | > 16.9 | 14.1 µM and 7.57 µM | 36.6 and 29
N#Cc1c(NC(=O)c2cccc(F)c2)sc2c1CCC2 | 19.5 ± 3.1 | > 16.5 | > 16.5 µM | 2.22 ± 1.6
Cc1ccc(O)c(-c2cc(-c3ccc(F)cc3)n[nH]2)c1 | 71.4 ± 16 | > 19 | 10.5 µM | 17.2 ± 4
CCOc1ccc(NC(=O)c2ccc3c(c2)OCO3)c([N+](=O)[O-])c1 | 14.7 ± 3 | > 18.6 | > 18.6 µM | 0.524 ± 1.2
CC(=O)Oc1ccc(C(=O)OCc2ccc(Cl)cc2)cc1OC(C)=O | 40.4 ± 4.3 | > 18.6 | > 18.6 µM | 24.7 ± 3.7
O=C(NC1CCCC1)c1cc(-c2cccs2)on1 | 57.6 ± 6.2 | > 16.9 | 13.4 µM | 11.9 ± 3.2
Cc1ccc(C)c(/C=N/Nc2nncc3ccccc23)c1 | 26.4 ± 5.4 | > 17.1 | > 17.1 µM | 8.33 ± 1.1
O=C(/C=C/c1ccco1)Nc1ccccn1 | 18.7 ± 4.8 | > 16.9 | > 16.9 µM | 1.83 ± 1.4
Oc1ccc(/C=N/Nc2cccc3cccnc23)cc1O | 30.7 ± 5.1 | > 16.9 | > 16.9 µM | 35 ± 3.2
CCOc1ccc(NC(=O)c2cccc(F)c2)c([N+](=O)[O-])c1 | 26.4 ± 1.6 | > 14.3 | > 14.3 µM | 2.67 ± 1.8
O=[N+]([O-])c1ccccc1NC(=S)N/N=C/c1ccc(O)c(O)c1 | 21.3 ± 3.4 | > 18.3 | > 18.3 µM | 28.2 ± 2.5
COc1cccc(-c2cc(C(=O)Nc3cc(C)ccc3O)no2)c1 | 46.2 ± 7.9 | > 16.9 | > 16.9 µM | 19.1 ± 3.5
CC(=O)Oc1cc(N2CCOCC2)c(OC(C)=O)c2c1C(=O)c1ccccc1C2=O | 9.5 ± 2.7 | > 16.9 | > 16.9 µM | 3.44 ± 3.3
Cc1cc2nc(-c3ccc(SCC#N)nc3)[nH]c2cc1C | 20.4 ± 3.8 | > 16.9 | > 16.9 µM | 8.52 ± 0.53
Cc1ccc(O)c(-c2cc(C(F)(F)C(F)F)no2)c1 | 79.8 ± 24 | > 16.7 | 7.56 µM | 23.6 ± 5.9
O=C(CC(=O)Nc1ccc2nc3n(c(=O)c2c1)CCCCC3)NCc1ccco1 | 77.9 ± 9.8 | > 16.9 | 8.59 µM | 40.7 ± 7.4
Cc1ccc(O)c(NC(=O)c2cc(CC(C)C)on2)c1 | 89.2 ± 8 | > 16.9 | 3.94 µM | 37.2 ± 9.3
Nc1ccc2nc(-c3ccccn3)[nH]c2c1 | 16.8 ± 4.6 | > 16.9 | > 16.9 µM | 22 ± 0.38
